Reference: ChEMBL document CHEMBL1135889, “Novel 4-anilinoquinazolines with C-7 basic side chains: design and structure activity relationship of a series of potent, orally active, VEGF receptor tyrosine kinase inhibitors” (J Med Chem, 2002)

Tests used:
Mus musculus [1] = assay: Inhibition of Calu-6 tumor xenografts implanted subcutaneously in athymic mice measured after 21 days of dosing of 100 mg/kg perorally.; assay type: functional; settings: Calu-6, 504 h, route oral
Mus musculus [2] = assay: Inhibition of Established Calu-6 tumor xenografts implanted subcutaneously in athymic mice measured after 21 days of dosing of 50 mg/kg perorally.; assay type: functional; settings: Calu-6, 504 h, route oral
physchem = settings: octanol/water, pH 7.4
[3] = pKa value at a pH of […].value ranges from […]-[…].; assay type: physicochemical; settings: pH 7.4
[4] = Pharmacokinetic parameter half-life in dog was reported after intravenous administration of 5 mg/Kg measured on free base; settings: in vivo
HUVEC = assay: Inhibition of basal unstimulated growth of human endothelial cell; assay type: functional, cell-based
[5] = Plasma levels following administration of 50 mg/Kg perorally and concentration in plasma 6 hr after administration; assay type: ADME, cell-free; settings: po, read-out: Plasma level
[6] = Pharmacokinetic parameter bioavailability in rat was reported after oral administration of 50 mg/Kg measured on free base; assay type: ADME, organism-based; settings: in vivo
Mus musculus [7] = assay: Inhibition of Established Calu-6 tumor xenografts implanted subcutaneously in athymic mice measured after 21 days of dosing of […] mg/kg perorally.; assay type: functional; settings: Calu-6, 504 h, route oral
[8] = Pharmacokinetic parameter bioavailability in dog was reported after oral administration of 25 mg/Kg measured on free base; settings: in vivo
[9] = Pharmacokinetic parameter half-life in rat was reported after intravenous administration of 5 mg/Kg measured on free base; settings: in vivo
[10] = solubility was determined using free base at pH 7.4; assay type: physicochemical; settings: buffer
[11] = Plasma levels following administration of 50 mg/Kg perorally and concentration of compound in plasma 24 hr after administration; assay type: ADME, cell-free; settings: po, read-out: Plasma level
Mus musculus [12] = assay: Inhibition of Established Calu-6 tumor xenografts implanted subcutaneously in athymic mice measured after 21 days of dosing of 12.5 mg/kg perorally.; assay type: functional; settings: Calu-6, 504 h, route oral

For `COc1cc2c(Nc3ccc(Br)cc3F)ncnc2cc1OCC1CCN(C)CC1.Cl`, the inhibition in vivo at 100 mg/kg (Mus musculus [1]) was 79%, the inhibition in vivo at 50 mg/kg (Mus musculus [2]) was 67% and the logD (physchem) was 2.6. The pKa [3] was 9.4, the half-life [4] was 8.3 h and the IC50 (HUVEC) was > 3000 nM. For the same compound, the concentration at 6 h [5] was 5.5 µM, the bioavailability [6] was > 50% and the inhibition in vivo at 25 mg/kg (Mus musculus [7]) was 51%. For the same compound, the bioavailability [8] was > 50%, the half-life [9] was 15 h and the solubility [10] was 330 µM. It also gave a concentration at 24 h [11] of 3 µM and an inhibition in vivo at 12.5 mg/kg (Mus musculus [12]) of 36%.
